Results reported in patent publication US20100273804A1, “PYRIDAZINE DERIVATIVES USEFUL AS FUNGICIDES AND FOR THE TREATMENT OF CANCER” (SYNGENTA CROP PROTECTION, INC., priority 2007, published 2010).

What was measured:
Alternaria solani = test: Alternaria solani/tomato/preventive (action against Alternaria on tomato); type: in vivo; conditions: 96 h, tomato plants cv. Roter Gnom, preventive spray, assessed 4 days after inoculation, read-out: inhibit fungal infestation
Protocol: Alternaria solani/Tomato/Preventive (Action Against Alternaria on Tomato) 4 weeks old tomato plants cv. Roter Gnom are treated with the formulated test compound in a spray chamber. Two days after application tomato plants are inoculated by spraying a spore suspension on the test plants. After an incubation period of 4 days at 22° C./18° C. and 95% r.h. in a greenhouse the disease incidence is assessed.

Botrytis cinerea = test: Botrytis cinerea/tomato/preventive (action against Botrytis on tomato); type: in vivo; conditions: 72 h, tomato plants cv. Roter Gnom, preventive spray, assessed 3 days after inoculation, read-out: inhibit fungal infestation
Protocol: Botrytis cinerea/tomato/preventive (Action against Botrytis on tomato) 4 weeks old tomato plants cv. Roter Gnom are treated with the formulated test compound in a spray chamber. Two days after application tomato plants are inoculated by spraying a spore suspension on the test plants. After an incubation period of 3 days at 20° C. and 95% r. h. in a greenhouse the disease incidence is assessed.

Puccinia recondita = test: Puccinia recondita/wheat/preventive (action against brown rust on wheat); type: in vivo; conditions: 264 h, wheat plants cv. Arina, preventive spray, assessed 11 days after inoculation, read-out: inhibit fungal infestation
Protocol: Puccinia recondita/Wheat/Preventive (Action Against Brown Rust on Wheat) 1 week old wheat plants cv. Arina are treated with the formulated test compound in a spray chamber. One day after application wheat plants are inoculated by spraying a spore suspension ([…] uredospores/ml) on the test plants. After an incubation period of 1 day at 20° C. and 95% r.h. plants are kept for 10 days 20° C./18° C. (day/night) and 60% r.h. in a greenhouse. The disease incidence is assessed 11 days after inoculation.

[1] = tested on: Maqnaporthe qrisea (Pyricularia oryzae); test: whole plant or invertebrate; type: in vivo; conditions: 144 h, read-out: inhibit fungal infestation
[2] = tested on: Pyrenophora teres (Helminthosporium teres); test: Pyrenophora teres (Helminthosporium teres)/barley/preventive (action against net blotch on barley); type: in vivo; conditions: 96 h, barley plants cv. Regina, preventive spray, assessed 4 days after inoculation, read-out: inhibit fungal infestation
Protocol: Pyrenophora teres (Helminthosporium teres)/Barley/Preventive (Action Against Net Blotch on Barley) 1-week-old barley plants cv. Regina are treated with the formulated test compound in a spray chamber. Two days after application barley plants are inoculated by spraying a spore suspension (2.6×10^4 conidia/ml) on the test plants. After an incubation period of 4 days at 20° C. and 95% r.h. the disease incidence is assessed.

Septoria tritici = test: Septoria tritici/wheat/preventive (action against Septoria leaf spot on wheat); type: in vivo; conditions: Zymoseptoria tritici, wheat plants cv. Riband, preventive spray, assessed 16-18 days after inoculation, read-out: inhibits fungal infestation
Protocol: Septoria tritici/Wheat/Preventive (Action Against Septoria Leaf Spot on Wheat) 2 weeks old wheat plants cv. Riband are treated with the formulated test compound in a spray chamber. One day after application wheat plants are inoculated by spraying a spore suspension (10^6 conidia/ml) on the test plants. After an incubation period of 1 day at 22° C./21° C. and 95% r.h. plants are kept at 22° C./21° C. and 70% r.h. in a greenhouse. The disease incidence is assessed 16-18 days after inoculation.

Uncinula necator = test: Uncinula necator/grape/preventive (action against powdery mildew on grape); type: in vivo; conditions: Erysiphe necator, 168 h, grape seedlings cv. Gutedel, preventive spray, assessed 7 days after inoculation, read-out: inhibit fungal infestation
Protocol: Uncinula necator/Grape/Preventive (Action Against Powdery Mildew on Grape) 5 weeks old grape seedlings cv. Gutedel are treated with the formulated test compound in a spray chamber. One day after application grape plants are inoculated by shaking plants infected with grape powdery mildew above the test plants. After an incubation period of 7 days at 24° C./22° C. and 70% r.h. under a light regime of 14/10 h (light/dark) the disease incidence is assessed.

Row | SMILES | inhibition at 200 ppm (Alternaria solani) [%] | inhibition at 200 ppm (Botrytis cinerea) [%] | inhibition at 200 ppm (Puccinia recondita) [%] | inhibition at 200 ppm [1] [%] | inhibition at 200 ppm [2] [%] | inhibition at 200 ppm (Septoria tritici) [%] | inhibition at 200 ppm (Uncinula necator) [%] | melting point [°C]
1 | Cc1nnc(Cl)c(-c2c(F)cc(F)cc2F)c1Cc1ccc(Cl)cc1 [I.k.158, 3-chloro-5-(4-chloro-benzyl)-6-methyl-4-(2,4,6-trifluoro-phenyl)-pyridazine] | ≥ 80 | ≥ 80 | ≥ 80 | ≥ 80 | ≥ 80 | ≥ 80 | ≥ 80 | –
2 | Cc1n[nH]c(=O)c(-c2c(F)cc(F)cc2F)c1Cc1ccc(Cl)cc1 [I.k.157, 5-(4-chloro-benzyl)-6-methyl-4-(2,4,6-trifluoro-phenyl)-2H-pyridazin-3-one] | – | – | – | – | – | – | – | 212 to 215
